Experiments:
Format in all cases: in vivo
[1] = test system: Diamond Back Moth (Plutella xylostella); test: Insecticidal effect on diamond back moth (Test Example 1); conditions: 50 ppm; Chinese cabbage seedling with deposited eggs immersed about 30 seconds; 25° C.; six days after the immersion
Summary of the method: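 Chinese cabbage seedlings carrying two-day-old eggs were dipped about 30 seconds in a 50 ppm dilution of formulated compound, air-dried and kept at 25° C. Hatched larvae were counted six days later to derive mortality, with triplicate groups of 10 insects.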

[2] = test system: Common Cutworm (Spodoptera Litura); test: Insecticidal effect on common cutworm (Test Example 2); conditions: 50 ppm; cabbage leaf immersed about 30 seconds; second-instar larvae; 25° C.; eight days after the inoculation
Source text: Insecticidal Effect on Common Cutworm (Spodoptera Litura)
A piece of cabbage leaf (cultivar; Shikidori) was immersed for about 30 seconds in a liquid chemical prepared by diluting a preparation containing each compound listed in Table 1, 2 or 3 as an active ingredient to adjust the concentration to 50 ppm. After air-dryness, it was placed in a plastic Petri dish with a diameter of 9 cm and inoculated with second-instar larvae of common cutworm, after which the dish was closed and then allowed to stand in a room thermostatted at 25° C. Eight days after the inoculation, the dead and alive were counted. The mortality was calculated according to the following equation and the insecticidal effect was judged according to the criterion shown in Test Example 1. The test was carried out with triplicate groups of 10 insects. [formula]

[3] = test system: Smaller tea Tortrix (Adoxophyes sp.); test: Insecticidal effect on smaller tea tortrix (Test Example 3); conditions: 50 ppm; tea leaf immersed 30 seconds; larvae; 25° C., humidity 70%; eight days after the inoculation
Method: Insecticidal Effect on Smaller tea Tortrix (Adoxophyes sp.)
A leaf of tea tree was immersed for 30 seconds in a liquid chemical containing each compound listed in Table 1, 2 or 3 as an active ingredient to adjust the concentration to 50 ppm. After air-dryness, the leaf was transferred to a plastic dish with a diameter of 9 cm and inoculated with larval smaller tea tortrix. Then, the leaf was allowed to stand in a room thermostatted at 25° C. at a humidity of 70%. Eight days after the inoculation, the dead and alive were counted, and the insecticidal effect was judged according to the same criterion as mentioned in Test Example 1. The test was carried out with triplicate groups of 10 insects.

| SMILES | Test Example 1 insecticidal effect (mortality) [1] | Test Example 2 insecticidal effect (mortality) [2] | Test Example 3 insecticidal effect (mortality) [3] |
| --- | --- | --- | --- |
| CSCC(C)NC(=O)c1c(OC(F)(F)F)cccc1C(=O)Nc1ccc(C(F)(C(F)(F)F)C(F)(F)F)cc1C (stereo not shown) [Compound No. 210, N^1-(4-Heptafluoroisopropyl-2-methylphenyl)-N^2-3-(1-methyl-2-methylthioethyl)-3-trifluoromethoxyphthalamide] | A (100) | A (100) | A (100) |
| CSCC(C)NC(=O)c1cccc(Cl)c1C(=O)Nc1ccc(C(F)(F)C(F)(F)F)cc1C (stereo not shown) [compound 115] | A (100) | A (100) |  |
| Cc1cc(Oc2ncc(C(F)(F)F)cc2Cl)ccc1NC(=O)c1cccc(I)c1C(=O)NC(C)C[S+](C)[O-] (stereo not shown) [compound 410] | A (100) | A (100) |  |
| CCS(=O)(=O)CC(C)(C)NC(=O)c1c(I)cccc1C(=O)Nc1ccc(OC(F)(F)F)cc1C [compound 250] | A (100) | A (100) |  |
| CSCC(C)NC(=O)c1c(C(=O)Nc2ccc(C(F)(C(F)(F)F)C(F)(F)F)cc2C)cccc1S(C)(=O)=O (stereo not shown) [Compound No. 191, N^1-(4-Heptafluoroisopropyl-2-methylphenyl)-N^2-(1-methyl-2-methylthioethyl)-3-methylsulfonylphthalamide] | A (100) | A (100) |  |
| CSCC(C)NC(=O)c1c(I)cccc1C(=O)Nc1ccc(OC(F)(F)F)cc1Cl (stereo not shown) [compound 233] | A (100) | A (100) |  |
| CC(C[S+](C)[O-])NC(=O)c1c(Br)cccc1C(=O)Nc1ccc(OC(F)(F)F)cc1Cl (stereo not shown) [compound 338] | A (100) | A (100) |  |
| Cc1cc(C(F)(C(F)(F)F)C(F)(F)F)ccc1NC(=O)c1cccc(I)c1C(=O)NC(C)CCS(C)(=O)=O (stereo not shown) [Compound No. 196, 3-Iodo-N^1-(4-heptafluoroisopropyl-2-methylphenyl)-N^2-(1-methyl-3-methylsulfonylpropyl)-phthalamide] | A (100) | A (100) | A (100) |
| Cc1cc(OC(F)(F)F)ccc1NC(=O)c1cccc(Cl)c1C(=O)NC(C)C[S+](C)[O-] (stereo not shown) [compound 143] | A (100) | D (79-50) |  |
| CSCC(C)NC(=O)c1cc(I)ccc1C(=O)Nc1ccc(C(F)(F)C(F)(F)F)cc1C (stereo not shown) [compound 108] | A (100) | A (100) |  |
| CSCCC(C)NC(=O)c1cccc(I)c1C(=O)Nc1ccc(C(F)(C(F)(F)F)C(F)(F)F)cc1C (stereo not shown) [Compound No. 162, 6-Iodo-N^1-(4-heptafluoroisopropyl-2-methylphenyl)-N^2-(1-methyl-3-methylthiopropyl)phthalamide] | A (100) | A (100) | A (100) |
| CCN(CCCSC)C(=O)c1c(F)cccc1C(=O)Nc1ccc(C(F)(C(F)(F)F)C(F)(F)F)cc1C [2-6] | A (100) | D (79-50) |  |
| CC(CS(C)(=O)=O)NC(=O)c1c(I)cccc1C(=O)Nc1cc2c(cc1Cl)OC(F)C(F)(F)O2 (stereo not shown) [compound 102] | A (100) | A (100) |  |
| Cc1cc(C(F)(F)C(F)(F)F)ccc1NC(=O)c1cccc(Cl)c1C(=O)NC(C)C[S+](C)[O-] (stereo not shown) [compound 144] | A (100) | A (100) |  |
| CC(C)(CS(C)(=O)=O)NC(=O)c1c(Br)cccc1C(=O)Nc1ccc(OC(F)(F)F)cc1Cl [compound 228] | A (100) | A (100) |  |
| Cc1cc(OC(F)(F)F)ccc1NC(=O)c1cccc(I)c1C(=O)NC(C)CSc1ccccn1 (stereo not shown) [compound 74] | A (100) | D (79-50) |  |
| Cc1cc(C(F)(F)C(F)(F)F)ccc1NC(=O)c1cccc(I)c1C(=O)NC(C)CCC[S+](C)[O-] (stereo not shown) [compound 133] | A (100) | A (100) |  |
| CSCC(C)NC(=O)c1c(C(=O)Nc2ccc(OC(F)(F)F)cc2C)ccc2c1OC(F)(F)O2 (stereo not shown) [compound 290] | A (100) | D (79-50) |  |
| Cc1cc(OC(F)(F)F)ccc1NC(=O)c1cccc(Br)c1C(=O)NC(C)CS(C)(=O)=O (stereo not shown) [compound 88] | A (100) | C (89-80) |  |
| CSCCC(C)NC(=O)c1c(I)cccc1C(=O)Nc1ccc(C(F)(C(F)(F)F)C(F)(F)F)cc1C (stereo not shown) [Compound No. 195, 3-Iodo-N^1-(4-heptafluoroisopropyl-2-methylphenyl)-N^2-(1-methyl-3-methylsulfenylpropyl)-phthalamide] | A (100) | A (100) | A (100) |
| CSCC(C)NC(=O)c1c(C(=O)Nc2ccc(C(F)(F)C(F)(F)F)cc2C)ccc(F)c1Cl (stereo not shown) [compound 148] | A (100) | C (89-80) |  |
| Cc1cc(OC(F)(F)F)ccc1NC(=O)c1cccc(I)c1C(=O)NC(C)CS(=O)(=O)C(C)(C)C (stereo not shown) [compound 139] | A (100) | A (100) |  |
| CSCC(C)NC(=O)c1c(Br)cccc1C(=O)Nc1ccc(OC(F)(F)F)cc1Cl (stereo not shown) [compound 337] | A (100) | A (100) |  |
| CSCC(C)NC(=O)c1c(C(=O)Nc2ccc(C(F)(C(F)(F)F)C(F)(F)F)cc2C)ccc(F)c1Cl (stereo not shown) [compound 149] | A (100) | A (100) |  |

Source: patent US6603044B1, “Phthalamide derivatives, or salt thereof agrohorticultural insecticide, and method for using the same” (Nihon Nohyaku Co., Ltd., priority 1998, dated 2003)
